One experiment deals with diamondback moth. The experiment can be described thus: Lepidopteran efficacy: neonate diamondback moth via radish leaf dip. The following applies: Plutella xylostella, foliar, 48 h, broflanilide @ 0.01 ppm, 2 DAT, read-out: Mean % Mortality @ Days after Treatment 2 DAT. It counts as in vivo. An excerpt:
(§1) Synergism can be described as an interaction where the combined effect of two or more compounds is greater than the sum of the individual effects of each of the compounds.
(§2) When the observed combined control effect is greater than the expected combined control effect (E), then the combined effect is synergistic.
(§3) Large leaf lima bean (southern armyworm) and radish (diamondback moth) were dipped in treatment solution and allowed to dry. The leaves were excised and placed individually into square petri dishes containing two filter paper discs moistened with 0.5 ml of reverse osmosis water. One neonate insect per dish (total of 20 dishes per treatment, grouped into 5 dishes per replicate) were infested for the test with southern armyworm. Five insects per dish (total of 5 dishes per treatment) were infested for the test with diamondback moth. The studies were held in an environmental chamber 14 L: 10 D at 30° C. and 70% RH. The number of dead and moribund insects were recorded (moribund was considered dead). Rate rundowns were conducted initially to determine sublethal rates for the combination testing.
(§4) 5 replications with 5 insects are each conducted per treatment, insects are held singly.
(§5) Control mortality is less than 15% and standard treatments yielded 100% mortality.

For the next experiment, the system named is southern armyworm. The experiment can be described thus: Lepidopteran efficacy: neonate southern armyworm via lima bean leaf dip. The class given is in vivo. The settings on record: Spodoptera eridania, foliar, 96 h, broflanilide @ 0.0025 ppm, 4 DAT, read-out: Mean % Mortality @ Days after Treatment 4 DAT.
Text: as §1, §2, §3, §4, §5

As usually defined, the mortality is the share of the test organisms that died. As for `CN(C(=O)c1ccccc1)c1cccc(C(=O)Nc2c(Br)cc(C(F)(C(F)(F)F)C(F)(F)F)cc2C(F)(F)F)c1F` [broflanilide], in the experiment on diamondback moth, the mortality at 0.01 ppm came to 44%. In addition, the mortality at 0.0025 ppm in the experiment on southern armyworm was 23.5%.
